Patent US12246009B2, “Compositions and methods for treating neurodegenerative, myodegenerative, and lysosomal storage disorders” (GEORGETOWN UNIVERSITY, priority 2018, dated 2025)

What was measured:
phosphorylated Tau (AT8) = experiment: Phosphorylated Tau (AT8) immunoblot in rTG4510 mice; format: in vivo, mouse; conditions: all three doses (1.25, 2.5, 5 mg/kg) i.p., 7 days
amyloid-beta (6E10) = experiment: Amyloid-beta (6E10) immunoblot in transgenic APP mice; format: in vivo, mouse; conditions: 1.25 and 2.5 mg/kg i.p., 21 consecutive days
B35 cells = experiment: MTT assay, cell viability; format: cell-based, rat; conditions: 1 μM, 16 hours of treatment, compared to control
Protocol: Rat neuroblastoma B35 cells were grown in Dulbecco's Modified Eagle's Medium (DMEM) with 10% Fetal Bovine Serum (FBS) and 1% penicillin/streptomycin and incubated at 37° C. with 5% CO2. For the experiments, cells were transferred to 12-well plates (Cat. #150628, ThermoFisher, Waltham, MA) and grown to at least 70% confluence. Transient transfection was performed with 3 μg P301 L tau (Cat. #30145, Addgene) cDNA or 3 μg human α-synuclein cDNA using Fugene HD transfection reagent (Cat. #E2311, Promega, Madison WI) for 24 hours. Cells were treated with 1 mM, 100 μM, 10 μM, 1 μM, 0.1 μM, 0.01 μM, and 0.001 μM dissolved in DMSO or an equivalent 5 ul of DMSO for 5 hours. Cell culture media was collected and cells were harvested using sodium-tris, EDTA, NP-40 (STEN) buffer and centrifuged at 10,000×g for 20 minutes at 4′C and supernatant was collected. Cell viability was determined via lactate dehydrogenase assay (Cat. #88954, Thermofisher) and MTT assay (Cat. #V13154, Thermofisher). […]
To measure cell viability, cells were incubated with 500 μL of Dulbecco's Modified Eagle's Medium (DMEM) containing 50 μL of (3-[4,5-dimethylthiazol-2-yl]-2,5-diphenyl-tetrazolium bromide (MTT)) for 4 hours at 37° C. and 5% CO2. […] Absorbance was read against a blank containing 125 uL of media and MTT, and 250 uL of DMS at 570 nm.

α-synuclein = α-synuclein ELISA in α-synuclein-transfected B35 cells; format: cell-based, rat; conditions: transfected B35 cell culture model, doses 10 uM-1 mM
Protocol: Rat neuroblastoma B35 cells were grown in Dulbecco's Modified Eagle's Medium (DMEM) with 10% Fetal Bovine Serum (FBS) and 1% penicillin/streptomycin and incubated at 37° C. with 5% CO2. For the experiments, cells were transferred to 12-well plates (Cat. #150628, ThermoFisher, Waltham, MA) and grown to at least 70% confluence. Transient transfection was performed with 3 μg P301 L tau (Cat. #30145, Addgene) cDNA or 3 μg human α-synuclein cDNA using Fugene HD transfection reagent (Cat. #E2311, Promega, Madison WI) for 24 hours. Cells were treated with 1 mM, 100 μM, 10 μM, 1 μM, 0.1 μM, 0.01 μM, and 0.001 μM dissolved in DMSO or an equivalent 5 ul of DMSO for 5 hours. Cell culture media was collected and cells were harvested using sodium-tris, EDTA, NP-40 (STEN) buffer and centrifuged at 10,000×g for 20 minutes at 4′C and supernatant was collected. Cell viability was determined via lactate dehydrogenase assay (Cat. #88954, Thermofisher) and MTT assay (Cat. #V13154, Thermofisher). Protein was extracted by removing culture medium and adding 0.2 ml 1× STEN buffer (50 mM. Tris (pH 7.6), 150 mM NaCl, 2 mM EDTA, 0.2% NP-40, 0.2% BSA, 20 mM. PMSF and protease cocktail inhibitor) to cell layer and incubated on ice for 10 minutes. The bottom of the well was scraped and allowed to incubate on ice for an additional 10 minutes. Cell lysates were collected, stored at −80° C., and used for additional analyses.
To perform transient transfection of α-synuclein into the rat neuroblastoma B35 cells FuGene® HD Transfection Reagent (Promega Corporation, Madison, WI) was used. Cells were grown in 12-well dishes. […]
Human α-synuclein and p-tau ELISA were performed using 50 μl (1 μg/4 μl) of cell lysates detected with 50 μl primary antibody (3 h) and 100 μl anti-rabbit secondary antibody (30 min) at RT. α-Synuclein levels were measured using human specific ELISA (Invitrogen Inc., Carlsbad, CA) according to manufacturer's protocols. Tau was measured using specific tau at serine 396 according to manufacturer's protocol. […]

pTau (181) = pTau (181) ELISA/Xmap in Tau expressing transgenic (rTG4510) mice; format: in vivo, mouse
pTau (231) (AT180) = pTau (231) (AT180) Western blot in rTG4510 transgenic mice; format: in vivo, mouse; conditions: 1.25 mg/kg, 2.5 mg/kg or 5.0 mg/kg
APP mice = experiment: Morris Water Maze test in APP mice; format: in vivo, mouse; conditions: 1.25 mg/kg, trend, no significant difference between groups
pTau (191) = experiment: pTau in CamP301L mice; format: in vivo, mouse; conditions: 2.5 mg/kg or 5 mg/kg
DDR1 = biological target: T1, DDR1 (Mus musculus, UniProt Q03146); experiment: Phosphorylated DDR1 immunoblot in transgenic APP mice; format: in vivo; conditions: 21 days
T1 construct: Brains were collected and homogenized in 1.0 ml 1× STEN buffer; from tissue; host or cells: brain of rTg4510 or TgAPP mice
T1 sequence (Q03146 20-911): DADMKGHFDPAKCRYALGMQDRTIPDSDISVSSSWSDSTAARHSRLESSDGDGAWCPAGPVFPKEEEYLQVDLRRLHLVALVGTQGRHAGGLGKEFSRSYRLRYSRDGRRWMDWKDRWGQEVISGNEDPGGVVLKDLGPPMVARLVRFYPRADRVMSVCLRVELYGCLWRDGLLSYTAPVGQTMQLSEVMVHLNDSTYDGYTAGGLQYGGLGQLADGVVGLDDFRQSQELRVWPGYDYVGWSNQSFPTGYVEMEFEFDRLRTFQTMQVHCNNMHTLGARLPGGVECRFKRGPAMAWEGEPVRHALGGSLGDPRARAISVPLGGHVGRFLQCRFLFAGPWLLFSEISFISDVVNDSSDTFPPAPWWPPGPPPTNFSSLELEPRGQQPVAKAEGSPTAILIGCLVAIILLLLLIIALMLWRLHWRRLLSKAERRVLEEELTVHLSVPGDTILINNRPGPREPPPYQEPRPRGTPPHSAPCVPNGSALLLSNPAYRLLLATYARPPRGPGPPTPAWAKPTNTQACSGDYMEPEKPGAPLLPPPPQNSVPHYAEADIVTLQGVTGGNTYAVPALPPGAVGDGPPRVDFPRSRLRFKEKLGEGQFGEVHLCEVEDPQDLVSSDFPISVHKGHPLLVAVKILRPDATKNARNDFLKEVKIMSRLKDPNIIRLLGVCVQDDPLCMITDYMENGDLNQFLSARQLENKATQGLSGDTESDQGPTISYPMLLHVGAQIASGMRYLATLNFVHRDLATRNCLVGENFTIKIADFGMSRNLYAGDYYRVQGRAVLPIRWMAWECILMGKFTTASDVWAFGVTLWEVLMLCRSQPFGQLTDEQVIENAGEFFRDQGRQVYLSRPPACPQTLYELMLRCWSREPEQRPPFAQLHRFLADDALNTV

## Cc1cccc(-c2cc3nccc(Nc4ccccc4)c3s2)c1 [BK40143, N-Phenyl-2-(m-tolyl)thieno[3,2-b]pyridin-7-amine]
Phosphorylated Tau (AT8)
  reduction of phosphorylated Tau (AT8), immunoblot: 41-49%
amyloid-beta (6E10)
  aggregating extracellular amyloid-beta (6E10), immunoblot: significantly reduced amyloid-beta plaques
B35 cells
  MTT, neuroprotective effect: increase
α-synuclein
  level of alpha-synuclein: appear to reduce the level of alpha-synuclein
pTau (181); Tau expressing transgenic mice, seven days of treatment
  pTau (181) level, ELISA: reduces pTau (181)
pTau (181); rTG4510 mice, 2.5 mg/kg i.p., 7 consecutive days, 2.5 mg/kg
  phosphorylated Tau (AT181), ELISA: significantly reduced phosphorylated Tau
pTau (231) (AT180)
  levels of pTau (231) (AT180), Western blot: did not affect
APP mice
  distance travelled before first entry to the platform, Morris Water Maze: lower distance travelled before the first entry
  latency to the first entry, Morris Water Maze: lower latency to first entry
  number of platform entries, Morris Water Maze: higher numbers of platform entries
pTau (191)
  pTau (191) level: reduced
DDR1; 1.25 mg/kg i.p.
  deactivation of DDR1 (phosphorylated DDR1 immunoblot): 40%
DDR1; 2.5 mg/kg i.p.
  deactivation of DDR1 (phosphorylated DDR1 immunoblot): 31%
